# Values quoted from earlier work as cited in US20070027116A1, “Therapeutic phosphonate derivatives” (priority 2003, published 2007).
# Settings: after oral or intravenous administration; background statement
smiles,measurement,value
COc1c(C)c2c(c(O)c1C/C=C(\C)CCC(=O)OCCN1CCOCC1)C(=O)OC2 [Mycophenolate mofetil],drug cleared by glucuronidation and excreted in the urine,over 90%
